Data: patent EP4578855A1, “PROLYL HYDROXYLASE INHIBITOR AND USE THEREOF” (Suzhong Pharmaceutical Group Co., Ltd., priority 2022, dated 2024)

Experiment: Pharmacokinetic evaluation after intravenous injection or intragastric administration, plasma LC-MS/MS
Format: in vivo, SD rats
From the text: After the compounds were given to SD rats by intravenous injection or intragastric administration, concentrations of related compounds in plasma were detected by an LC-MS/MS method, and pharmacokinetics and absolute bioavailability of the compounds prepared in Embodiments 13 and 14 in the rats were preliminarily evaluated.
2. Line: Sprague Dawley rats, sex: male, weight: 200 g to 250 g
Pharmacokinetic characteristics of rodents after intravenous injection and oral administration of the compounds were tested by a standard scheme. In the experiment, a candidate compound was prepared into a clear solution, and given to the rats by single intravenous injection and intragastric administration. A solvent for intravenous injection was a certain proportion of N,N-dimethylacetamide (DMA) and 10% Solutol HS15 solution, and a solvent for oral administration was a certain proportion of sodium carboxymethyl cellulose (CMC) suspension. 5 minutes, 15 minutes, 30 minutes, 1 hour, 2 hours, 4 hours, 6 hours, 8 hours, 10 hours and 24 hours after drug administration, blood samples of the animals were respectively collected into K2EDTA anticoagulation tubes, which were temporarily stored on ice until centrifugation.

[1] = SD rats, in words, compared with Enarodustat in the table

SMILES: O=C(O)CNC(=O)c1c(O)cc(C2CCc3ccccc3C2)n2ncnc12 (single isomer, unassigned) [Compound in Embodiment 13, [(7-hydroxy-5-(1,2,3,4-tetrahydronaphthalene-2-yl)-[1,2,4]triazolo[1,5-a]pyridine-8-carbonyl)amino]acetic acid]
- half-lives [1]: obviously longer
- in-vivo exposure [1]: higher
- AUC (male, Sprague-Dawley, rat, plasma, male SD rats, route and dose not given, read-out: Concentration integral AUC): 19100 ng·h/mL
- half-life (male, Sprague-Dawley, rat, plasma, male SD rats, route and dose not given, read-out: Half-life period T1/2 (converted)): 2.02 h
- bioavailability (male, Sprague-Dawley, rat, plasma, oral, male SD rats, intragastric vs intravenous, read-out: Bioavailability F): 29.4%
